We go through six compounds from PMC4186434, “Antagonism of human CC-chemokine receptor 4 can be achieved through three distinct binding sites on the receptor” (Pharmacology Research & Perspectives, 2013).

The target of this assay is T1, human CC-chemokine receptor 4 (CCR4); CHO-CCR4 membranes (Homo sapiens, UniProt P51679).
T1 construct: membranes
T1 sequence (P51679 1-360): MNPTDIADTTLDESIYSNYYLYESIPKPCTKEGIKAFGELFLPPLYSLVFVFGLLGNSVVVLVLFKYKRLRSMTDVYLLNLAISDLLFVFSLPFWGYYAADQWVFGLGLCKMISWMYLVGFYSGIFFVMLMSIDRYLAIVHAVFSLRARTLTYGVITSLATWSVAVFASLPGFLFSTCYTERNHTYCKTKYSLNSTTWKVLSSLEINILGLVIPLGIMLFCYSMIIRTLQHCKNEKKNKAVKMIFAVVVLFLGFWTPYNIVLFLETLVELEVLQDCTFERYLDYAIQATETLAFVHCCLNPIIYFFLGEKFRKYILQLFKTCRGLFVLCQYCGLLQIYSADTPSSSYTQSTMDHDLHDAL
The experiment in a line: […]CCL17 displacement, scintillation proximity assay, CHO-CCR4 membranes. In kind it is binding. The settings on record: read-out: [^125I]CCL17 / pKi (converted).

Regarding `COc1cc2nc(N3CCC(N(C)C(=O)[C@H]4CCCN4)CC3)nc(Nc3ccc(Cl)cc3F)c2cc1OC` [compound 6], the Ki is 2 nM.
Take `c1ccc2c(Nc3nc(CN(CC4CCCCC4)CC4CCCCC4)cs3)cccc2c1` [compound 1]: the Ki was 457 nM.
With `O=C([C@H]1CCCCN1)N1CCN(c2nccc(NCc3ccc(Cl)cc3Cl)n2)CC1` [compound 4] the figure was 2.75 nM; with `COc1cccc2c1c(NS(=O)(=O)c1ccc(Cl)s1)nn2Cc1cccc(CNC(=O)OC(C)(C)C)c1` [compound 2], 18.2 nM.
With `COc1nc(Br)cnc1NS(=O)(=O)c1ccc(Cl)s1` [compound 7] the figure was 29.5 nM; with `COc1cccc2c1c(NS(=O)(=O)c1ccc(Cl)s1)nn2Cc1cccc(CNC(=O)C(C)(C)O)c1` [compound 3], 6.17 nM.
